# Measured values from patent US6638966B2 (University of Iowa Research Foundation, priority 2000, dated 2003).
# Assays:
# [1] = Anesthetic effect compared with melatonin; settings: in vivo
# male Sprague-Dawley rats = test: Anesthetic effect of melatonin given through a jugular catheter to rats (Intralipid and cyclodextrin preparations); type: in vivo, rat; settings: for anesthetic effect (righting reflex) / anesthetic effect (righting reflex, eyelash reflex, hind paw pressure): 50 mg/ml
# Procedure: All experiments were carried out in male Sprague-Dawley rats (300-350 g). Rats were maintained on a 12 hour light/12 hour dark cycle with free access to food and water. All surgical procedures were performed under sterile conditions (skin preparation, sterile filed drape, gloves, mask, etc.). All instruments and materials were ethylene oxide sterilized. Non-fasting adult male Sprague Dawley rats (˜300 gm) were anesthetized with halothane in oxygen and weighed. The hair over the ventral neck and over the back (between the scapulae) was removed with an electric razor. In the supine position the ventral neck was washed with povidone-iodine, followed by a 3-cm skin incision, just left of mid-line. All bleeding points were cauterized. Both the left jugular vein and left common carotid artery were isolated via blunt dissection. The left jugular vein was cannulated with a heparinized (20 U/ml) saline-filled silastic catheter (0.012-in ID, 0.025-in OD) advanced ˜3-cm into the right atrium. The jugular catheter was secured to the vein with 4-0 silk at the point of insertion, as well as at the rostral jugular ligature. After implantation of intravascular catheters, rats were housed in individual stainless steel cages. […] Crystalline Melatonin powder was obtained from Sigma (Sigma Chemical Co. St. Louis, Mo.).
# rats [2] = test: Single bolus i.v. injection: time course of indices of anesthesia in rats; type: in vivo, rat; settings: for time for which loss of righting reflex and grip strength was maximal: single i.v. bolus: 10 mg/kg propofol; for time for which loss of righting reflex and grip strength was maximal / effect on paw withdrawal threshold / effect on righting reflex and grip strength: 275 mg/kg melatonin; for effect on paw withdrawal threshold / effect on righting reflex and grip strength / time by which loss of righting reflex and grip strength resolved: single i.v. bolus: 20 mg/kg thiopental, 10 mg/kg propofol; for time by which loss of righting reflex and grip strength resolved: 275 mg/kg melatonin (near baseline values)
# Procedure: (§1) After the final cumulative dose, measurements of anesthesia end-points were made at fixed intervals for an additional 20 minutes. […] Measurements of anesthesia end-points were made in these rats at fixed intervals for 20 minutes. Righting reflex was scored on a four-point scale (1=immediate/brisk, both feet under the rat; 2=complete, but slower than normal; 3=slow, feet not placed under body; and 4=absent). The threshold pressure (mm Hg) at which the rat withdrew or vocalized after pinch of one hindpaw was measured. For paw pinch, a subminiature, very low profile load cell Omega part number LCKD-1KG, measurement range of 0-1 kg) (OMEGA Engineering, INC., Stamford, Conn.) was used to measure the amount of pressure applied to the rat's paw. The action of compressing the load cell between the faces of the sponge clamp assembly results in a change in impedance within the load cell, and this in turn, was then converted to mm Hg pressure by the monitor. The presence or absence of eyelash reflex was noted on a three-point scale (1=normal, 2=weak; and 3=absent). The strength of grip by the forepaws was determined on a four-point scale (0=absent, 1=weak, 2=moderate and 3=strong).
# (§2) Thiopental was purchased from Abbott Laboratories (Northern Chicago, Ill.). Propofol was purchased from Zeneca Pharmaceuticals (Wilmington, Del.). […] Thiopental and propofol were dissolved in saline and Intralipid™ respectively. […] For the bolus injections, the volume of drug injected ranged from 0.6 to 0.75 ml.
# [3] = Solubility of melatonin in 1-methyl-2-pyrrolidinone/propylene glycol/water solvent; type: physicochemical; settings: solvent: 1 volume 1-methyl-2-pyrrolidinone, 1 volume propylene glycol, 2 volumes water
# From the text: The volume ratios here expressed are preferred but generally can be within the range of 25% or less by volume of 1-methyl-2-pyrrolidinone.
# patients = settings: low-level doses sublingually, British Journal of Anesthesia 82(6):875-80(1999); cited from earlier work
# rats [4] = settings: rat, in vivo, iv
# rats [5] = test: Cumulative i.v. doses: indices of anesthesia in rats (righting reflex, grip strength, eyelash reflex, paw withdrawal threshold); type: in vivo, rat; settings: for estimated ED95 (and 95% CI) for loss of righting reflex: cumulative i.v. injection of divided doses; for effect on righting reflex, grip strength and eyelash reflex: three cumulative i.v. doses about 1 min apart: 6.67 mg/kg thiopental, 3.3 mg/kg propofol, 70 mg/kg melatonin
# Procedure: as §1, §2
# [6] = Rat 1, 315 mg/kg, in 40% cyclodextrin
# [7] = Rat 2, 374 mg/kg, in 40% cyclodextrin
compound,measurement,setting,value
COc1ccc2[nH]c(C(F)(F)F)c(CCNC(C)=O)c2c1 [2-trifluoromethylmelatonin],anesthetic effect relative to melatonin,[1],substantially more active in anesthetic effect than melatonin itself
"COc1ccc2[nH]cc(CCNC(C)=O)c2c1 [melatonin, N-acetyl-5-methoxytryptamine]",anesthetic effect (righting reflex),"male Sprague-Dawley rats; Rat 1, 250 mg/kg followed about 1 minute later by 65 mg/kg, Intralipid + Ringer's Lactate",very drugged but did not lose righting reflex
same,anesthetic effect (righting reflex),"male Sprague-Dawley rats; Rat 1, 315 mg/kg, cyclodextrin 40% + Intralipid",moves slowly but no loss of righting reflex
same,"anesthetic effect (ptosis, eye blink, paw pinch)",male Sprague-Dawley rats; [6],"ptosis, loss of eye blink response and loss of paw pinch response to a pressure of 60 mmHg"
same,time for which the righting reflex was lost,male Sprague-Dawley rats; [6],27 min
same,"anesthetic effect (righting reflex, eyelash reflex, hind paw pressure)","male Sprague-Dawley rats; Rat 2, 250 mg/kg, Intralipid + Ringer's Lactate",loss of righting and eyelash reflexes and inability to pull his hind paw in response to pressure applied to it
same,"anesthetic effect (ptosis, eye blink)",male Sprague-Dawley rats; [7],ptosis and loss of eye blink response
same,time for which the righting reflex was lost,male Sprague-Dawley rats; [7],15 min
same,paw pinch response,"male Sprague-Dawley rats; Rat 2, 374 mg/kg, in 40% cyclodextrin, pressure of 60 mmHg",pulling his paw without vocalization
same,anesthetic effect (righting reflex),"male Sprague-Dawley rats; Rat 2, 460 mg/kg, cyclodextrin 40% + Intralipid",loss of righting reflex
same,"anesthetic effect (righting reflex, eyelash reflex, hind paw pressure)","male Sprague-Dawley rats; Rat 3, 320 mg/kg, Intralipid + Ringer's Lactate",loss of righting and eyelash reflexes and inability to pull his hind paw in response to pressure applied to it
same,"anesthetic effect (righting reflex, eyelash reflex, hind paw pressure)","male Sprague-Dawley rats; Rat 4, 370 mg/kg, Intralipid + Ringer's Lactate",loss of righting and eyelash reflexes and inability to pull his hind paw in response to pressure applied to it
same,time for which the increase in paw withdrawal threshold persisted,rats [2]; single i.v. bolus 275 mg/kg,at least 20 min
same,time for which loss of righting reflex and grip strength was maximal,rats [2],5 min
same,effect on paw withdrawal threshold,rats [2],increased paw withdrawal threshold as compared to vehicle
same,effect on righting reflex and grip strength,rats [2],immediate loss of righting reflex and grip strength
same,time by which loss of righting reflex and grip strength resolved,rats [2],≤ 15 min
same,concentration to which melatonin can be dissolved,[3],≤ 300000 µg/mL
same,anxiety and sedation before operation,patients,significant decrease in anxiety levels and an increase in levels of sedation before operation
same,toxic side effects,rats [4],without causing toxic side effects
same,effect on paw withdrawal threshold,rats [5]; cumulative i.v. doses of 70 mg/kg,dose-dependently increased paw withdrawal threshold
same,estimated ED95 (and 95% CI) for loss of righting reflex,rats [5],312 (205-476) mg/kg
same,doses at which the increase in paw withdrawal threshold was apparent,rats [5]; i.v.,≥ 140 mg/kg
same,"effect on righting reflex, grip strength and eyelash reflex",rats [5],"progressive loss of righting reflex and grip strength, but did not appreciably blunt the eyelash reflex"
CC(C)c1cccc(C(C)C)c1O [propofol],time for which loss of righting reflex and grip strength was maximal,rats [2],5 min
same,effect on paw withdrawal threshold,rats [2],significant increase in paw withdrawal threshold of similar duration
same,effect on righting reflex and grip strength,rats [2],immediate loss of righting reflex and grip strength
same,time by which loss of righting reflex and grip strength resolved,rats [2],≤ 10 min
same,estimated ED95 (and 95% CI) for loss of righting reflex,rats [5],14.9 (6.4-34.9) mg/kg
same,"effect on righting reflex, grip strength and eyelash reflex",rats [5],"progressive loss of righting reflex, grip strength and eyelash reflex"
CCCC(C)C1(CC)C(=O)NC(=S)NC1=O (stereo not drawn) [thiopental],time at which loss of righting reflex and grip strength was maximal,rats [2]; single i.v. bolus 20 mg/kg,1 min
same,effect on paw withdrawal threshold,rats [2],not accompanied by a change in paw withdrawal threshold
same,effect on righting reflex and grip strength,rats [2],immediate loss of righting reflex and grip strength
same,time by which loss of righting reflex and grip strength resolved,rats [2],≤ 15 min
same,estimated ED95 (and 95% CI) for loss of righting reflex,rats [5],23.8 (15.4-36.7) mg/kg
same,"effect on righting reflex, grip strength and eyelash reflex",rats [5],"progressive loss of righting reflex, grip strength and eyelash reflex"
